The subject of experiment [1] is Monocyte. Briefly: Compound was tested for inhibition of LTC4 release in the human monocytic cell line; NI means no inhibition observed. Format: functional, cell-based.
The target in experiment [2] is T1, Polyunsaturated fatty acid 5-lipoxygenase (Homo sapiens) (UniProt P09917).
T1 sequence (whole entry): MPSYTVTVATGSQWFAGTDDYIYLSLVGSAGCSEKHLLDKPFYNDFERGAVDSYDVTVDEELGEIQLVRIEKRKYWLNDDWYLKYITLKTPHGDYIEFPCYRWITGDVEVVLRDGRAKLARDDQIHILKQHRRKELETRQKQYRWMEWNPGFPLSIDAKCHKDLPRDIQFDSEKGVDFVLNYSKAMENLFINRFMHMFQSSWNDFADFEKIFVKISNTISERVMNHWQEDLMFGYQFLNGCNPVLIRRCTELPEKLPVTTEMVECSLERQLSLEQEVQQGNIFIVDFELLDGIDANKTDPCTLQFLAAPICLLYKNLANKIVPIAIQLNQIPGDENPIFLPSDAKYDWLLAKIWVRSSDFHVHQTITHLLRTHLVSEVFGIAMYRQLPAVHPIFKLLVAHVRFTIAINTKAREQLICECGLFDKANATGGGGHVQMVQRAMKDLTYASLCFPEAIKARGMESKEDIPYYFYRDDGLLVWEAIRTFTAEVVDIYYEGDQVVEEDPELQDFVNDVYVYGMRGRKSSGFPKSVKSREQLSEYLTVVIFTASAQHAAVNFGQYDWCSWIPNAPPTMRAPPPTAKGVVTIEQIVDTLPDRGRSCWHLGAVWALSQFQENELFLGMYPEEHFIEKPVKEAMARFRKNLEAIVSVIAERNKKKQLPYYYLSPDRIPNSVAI
In words: Compound was tested for inhibition of 5-lipoxygenase at 50 uM; NI means no inhibition was observed.

In experiment [3] the test system is Monocyte. Briefly: Compound was tested for inhibition of LTC4 release in the human monocytic cell line at 30 uM. Format: functional.

Usually inhibition stands for the relative decrease from the control value, in per cent.

Take `CCCCCCCCCCCCC(=O)NC(COCCC)COP(=O)(O)OCCO` (centres undefined): in the experiment on Monocyte [1], the inhibition result is “No inhibition”.

Take `CCCCCCCCCCCCCCCCCCOCC(CCc1nnn[nH]1)NC(C)=O` (centres undefined): in experiment [2], the inhibition result is “No inhibition”. The inhibition at 30 µM in the experiment with Monocyte [3] stood at 75%.

`CCCCCCCCOC[C@H](COP(=O)(O)OCCN)OP(=O)(O)CCCCCCC`: the inhibition entry with Monocyte [1] was “No inhibition”.

Source of the values: ChEMBL document CHEMBL1130442, “Tetrazole is an effective Sn-3 phosphate replacement in substrate analog inhibitors of 14 kDa phospholipase A2” (Bioorg Med Chem Lett, 1997).
